In ChEMBL document CHEMBL1201862, “PubChem BioAssay data set” (2004):
The source made the active and inactive calls.

Experiments:
[1] = system: INS1; experiment: INS-1E survival protection against cytokine death – cell-based, luminescence, retest, dose response (AID 449756); assay type: functional; conditions: Rattus norvegicus;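 note: cell death triggered by IL-1 beta plus TNF-alpha plus IFN-gamma mixture; protective hits raise ATP signal compared with cytokine alone wells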
[2] = molecular target: Photoreceptor-specific nuclear receptor (Homo sapiens, UniProt Q9Y5X4); assay type: functional, cell-based;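 note: CHO-S cells with Gal4-NCOR and VP16-NR2E3 two-hybrid luciferase reporter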
[3] = blockers of CRF-binding protein–CRF-R2 complex – cell-based, uHTS hits, 384-well, dose response (AID 651639); assay type: functional, Homo sapiens; conditions: read-out: IC50_Mean
[4] = molecular target: T1, Corticotropin-releasing factor receptor 2/Corticotropin-releasing factor-binding protein (Homo sapiens, UniProt P24387+Q13324); experiment: Dose Response confirmation of uHTS hits for small molecule antagonists of the CRF-binding protein and CRF-R2 receptor complex.; assay type: functional; conditions: read-out: IC50_Mean
T1 sequence (Q13324 whole entry): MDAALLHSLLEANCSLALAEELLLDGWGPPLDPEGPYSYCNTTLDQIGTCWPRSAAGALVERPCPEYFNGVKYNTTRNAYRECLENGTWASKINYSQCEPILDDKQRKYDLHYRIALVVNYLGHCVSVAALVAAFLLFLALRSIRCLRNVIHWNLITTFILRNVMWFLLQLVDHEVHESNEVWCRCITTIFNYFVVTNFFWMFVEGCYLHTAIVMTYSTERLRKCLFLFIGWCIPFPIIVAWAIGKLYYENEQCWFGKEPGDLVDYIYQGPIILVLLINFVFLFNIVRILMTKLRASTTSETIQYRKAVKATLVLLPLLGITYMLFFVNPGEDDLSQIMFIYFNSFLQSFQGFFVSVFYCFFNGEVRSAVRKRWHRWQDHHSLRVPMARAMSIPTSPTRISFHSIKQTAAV
T1 sequence (P24387 whole entry): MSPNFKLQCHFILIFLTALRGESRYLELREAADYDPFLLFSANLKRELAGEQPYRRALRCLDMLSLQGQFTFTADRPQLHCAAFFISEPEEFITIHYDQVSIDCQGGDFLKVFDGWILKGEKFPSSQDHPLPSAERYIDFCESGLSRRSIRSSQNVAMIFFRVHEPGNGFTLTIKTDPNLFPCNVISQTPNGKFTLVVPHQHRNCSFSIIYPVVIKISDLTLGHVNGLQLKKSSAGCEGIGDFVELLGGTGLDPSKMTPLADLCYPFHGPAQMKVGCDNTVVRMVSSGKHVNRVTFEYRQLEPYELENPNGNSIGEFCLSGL

[5] = Trypanosoma cruzi growth suppression in host cells – NIH3T3 host cells, beta-gal luminescence, confirmation (AID 2044); assay type: functional, cell-based;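 note: intracellular parasites grown in NIH/3T3 mouse fibroblasts as host cells; luminescent beta-galactosidase reporter signal from transgenic T. cruzi replicating inside host cells; inhibitors lower the luminescence signal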
[6] = NIH3T3 cell viability loss – ATP luminescence, mouse fibroblasts, counter-screen, dose response (AID 2010); assay type: functional, cell-based; conditions: NIH3T3;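 note: cells exposed to compound for about 90 hours before reading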
[7] = molecular target: T1, Corticotropin-releasing factor receptor 2/Corticotropin-releasing factor-binding protein; experiment: activators of CRF receptor 2 with binding protein – uHTS hits, confirmation (AID 602473); assay type: functional; conditions: read-out: EC50_Mean
[8] = molecular target: T2, DNA repair protein RAD52 homolog (Homo sapiens, UniProt P43351); assay type: functional, biochemical
T2 sequence (P43351 whole entry): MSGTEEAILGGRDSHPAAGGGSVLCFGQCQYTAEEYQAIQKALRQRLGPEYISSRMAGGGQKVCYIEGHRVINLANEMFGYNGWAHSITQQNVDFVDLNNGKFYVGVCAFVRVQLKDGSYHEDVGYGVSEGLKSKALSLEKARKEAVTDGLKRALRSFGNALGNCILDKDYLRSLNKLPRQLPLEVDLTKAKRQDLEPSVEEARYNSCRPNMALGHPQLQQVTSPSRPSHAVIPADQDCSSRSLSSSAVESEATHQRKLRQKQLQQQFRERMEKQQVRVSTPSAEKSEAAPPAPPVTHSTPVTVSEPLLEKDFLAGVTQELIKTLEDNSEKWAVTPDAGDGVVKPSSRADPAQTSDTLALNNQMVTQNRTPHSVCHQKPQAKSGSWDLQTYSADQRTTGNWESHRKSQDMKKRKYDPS

[9] = molecular target: T3, DNA repair and recombination protein RAD54-like (Homo sapiens, UniProt Q92698); experiment: RAD54 Holliday junction migration blockers – biochemical, fluorescence, cherry-picked samples, dose series, confirmation (AID 651657); assay type: functional
T3 sequence (Q92698 whole entry): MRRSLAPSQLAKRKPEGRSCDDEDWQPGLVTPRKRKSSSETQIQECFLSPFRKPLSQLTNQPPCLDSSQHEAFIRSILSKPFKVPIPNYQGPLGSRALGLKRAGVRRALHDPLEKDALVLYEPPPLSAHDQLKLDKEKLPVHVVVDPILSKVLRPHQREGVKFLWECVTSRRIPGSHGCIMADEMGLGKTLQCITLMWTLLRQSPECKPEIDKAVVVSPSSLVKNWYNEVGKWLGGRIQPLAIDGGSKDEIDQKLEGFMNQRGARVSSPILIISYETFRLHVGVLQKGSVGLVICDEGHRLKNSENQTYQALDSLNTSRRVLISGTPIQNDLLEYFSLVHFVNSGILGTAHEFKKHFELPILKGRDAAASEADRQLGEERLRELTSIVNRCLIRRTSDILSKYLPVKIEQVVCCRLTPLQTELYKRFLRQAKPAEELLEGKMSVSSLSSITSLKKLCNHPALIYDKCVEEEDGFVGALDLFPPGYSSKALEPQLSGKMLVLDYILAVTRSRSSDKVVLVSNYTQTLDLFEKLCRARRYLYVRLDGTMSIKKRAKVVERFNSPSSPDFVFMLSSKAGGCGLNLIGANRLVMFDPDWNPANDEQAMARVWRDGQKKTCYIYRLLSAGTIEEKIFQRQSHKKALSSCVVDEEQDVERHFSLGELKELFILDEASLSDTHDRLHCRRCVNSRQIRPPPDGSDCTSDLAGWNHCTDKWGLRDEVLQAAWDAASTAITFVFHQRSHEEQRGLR

[10] = activation of miR-122 Renilla sensor silencing – cell-based, Huh7 psiCHECK-miR122, Renilla luciferase, cherry-picked, dose response (AID 651956); assay type: functional;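 note: huh7 hepatoma cells stably carrying a psiCHECK-2 miR-122 sensor plasmid; renilla luciferase signal reporting endogenous miR-122 activity after 48 h compound exposure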
[11] = molecular target: Genome polyprotein (dengue virus type 2, UniProt P29990); experiment: flavivirus cap methylation enzyme inhibition – biochemical, confirmation dose response, primary screen (AID 588689); assay type: functional
[12] = molecular target: T4, Aminopeptidase N (Plasmodium falciparum FcB1/Columbia, UniProt O96935); experiment: malaria alanyl aminopeptidase activity blockers – biochemical, fluorogenic H-Leu-NHMec substrate, 1536-well (AID 1445); design: species or system Plasmodium falciparum 3D7, 3D7
T4 sequence (O96935 whole entry): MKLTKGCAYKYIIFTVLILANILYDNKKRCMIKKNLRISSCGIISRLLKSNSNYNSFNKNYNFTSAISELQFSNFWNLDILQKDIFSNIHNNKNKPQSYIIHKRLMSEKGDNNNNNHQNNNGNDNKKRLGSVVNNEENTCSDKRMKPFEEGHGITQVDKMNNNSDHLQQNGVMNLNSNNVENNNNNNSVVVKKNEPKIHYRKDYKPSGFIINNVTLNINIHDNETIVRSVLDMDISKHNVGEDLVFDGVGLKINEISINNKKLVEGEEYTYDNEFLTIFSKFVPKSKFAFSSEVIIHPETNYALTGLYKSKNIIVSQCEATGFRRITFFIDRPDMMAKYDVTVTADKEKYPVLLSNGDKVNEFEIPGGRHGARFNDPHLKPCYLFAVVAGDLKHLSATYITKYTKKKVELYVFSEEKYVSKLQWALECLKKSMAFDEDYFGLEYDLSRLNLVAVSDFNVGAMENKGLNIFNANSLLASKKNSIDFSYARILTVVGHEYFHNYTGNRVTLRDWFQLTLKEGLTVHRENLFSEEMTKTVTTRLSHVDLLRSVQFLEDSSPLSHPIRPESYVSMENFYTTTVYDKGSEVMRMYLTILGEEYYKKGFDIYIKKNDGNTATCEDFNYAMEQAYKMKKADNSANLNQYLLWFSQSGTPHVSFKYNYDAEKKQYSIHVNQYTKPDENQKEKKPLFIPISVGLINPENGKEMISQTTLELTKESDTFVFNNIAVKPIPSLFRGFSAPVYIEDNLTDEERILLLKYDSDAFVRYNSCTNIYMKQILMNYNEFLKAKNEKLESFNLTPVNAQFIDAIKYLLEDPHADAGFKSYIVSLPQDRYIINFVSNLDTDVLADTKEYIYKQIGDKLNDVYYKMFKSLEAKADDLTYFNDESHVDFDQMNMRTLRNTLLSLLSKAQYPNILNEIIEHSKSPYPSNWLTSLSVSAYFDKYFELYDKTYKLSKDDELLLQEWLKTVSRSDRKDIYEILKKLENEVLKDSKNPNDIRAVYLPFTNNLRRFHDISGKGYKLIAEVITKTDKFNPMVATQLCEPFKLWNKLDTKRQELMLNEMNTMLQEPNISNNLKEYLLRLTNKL

Chain of Photoreceptor-specific nuclear receptor (Q9Y5X4 whole entry, the tested form may be a part): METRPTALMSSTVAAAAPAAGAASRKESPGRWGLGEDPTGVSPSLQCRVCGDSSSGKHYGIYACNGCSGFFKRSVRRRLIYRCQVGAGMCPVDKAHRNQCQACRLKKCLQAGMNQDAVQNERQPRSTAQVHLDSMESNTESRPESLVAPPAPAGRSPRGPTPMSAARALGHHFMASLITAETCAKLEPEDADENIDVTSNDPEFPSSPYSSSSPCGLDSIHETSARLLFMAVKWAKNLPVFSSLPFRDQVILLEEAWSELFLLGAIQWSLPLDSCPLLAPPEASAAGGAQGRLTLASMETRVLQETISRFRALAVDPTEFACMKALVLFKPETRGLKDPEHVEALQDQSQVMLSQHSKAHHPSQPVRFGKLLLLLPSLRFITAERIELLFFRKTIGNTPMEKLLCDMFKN
Chain of Genome polyprotein (P29990 2492-3391 limits assumed): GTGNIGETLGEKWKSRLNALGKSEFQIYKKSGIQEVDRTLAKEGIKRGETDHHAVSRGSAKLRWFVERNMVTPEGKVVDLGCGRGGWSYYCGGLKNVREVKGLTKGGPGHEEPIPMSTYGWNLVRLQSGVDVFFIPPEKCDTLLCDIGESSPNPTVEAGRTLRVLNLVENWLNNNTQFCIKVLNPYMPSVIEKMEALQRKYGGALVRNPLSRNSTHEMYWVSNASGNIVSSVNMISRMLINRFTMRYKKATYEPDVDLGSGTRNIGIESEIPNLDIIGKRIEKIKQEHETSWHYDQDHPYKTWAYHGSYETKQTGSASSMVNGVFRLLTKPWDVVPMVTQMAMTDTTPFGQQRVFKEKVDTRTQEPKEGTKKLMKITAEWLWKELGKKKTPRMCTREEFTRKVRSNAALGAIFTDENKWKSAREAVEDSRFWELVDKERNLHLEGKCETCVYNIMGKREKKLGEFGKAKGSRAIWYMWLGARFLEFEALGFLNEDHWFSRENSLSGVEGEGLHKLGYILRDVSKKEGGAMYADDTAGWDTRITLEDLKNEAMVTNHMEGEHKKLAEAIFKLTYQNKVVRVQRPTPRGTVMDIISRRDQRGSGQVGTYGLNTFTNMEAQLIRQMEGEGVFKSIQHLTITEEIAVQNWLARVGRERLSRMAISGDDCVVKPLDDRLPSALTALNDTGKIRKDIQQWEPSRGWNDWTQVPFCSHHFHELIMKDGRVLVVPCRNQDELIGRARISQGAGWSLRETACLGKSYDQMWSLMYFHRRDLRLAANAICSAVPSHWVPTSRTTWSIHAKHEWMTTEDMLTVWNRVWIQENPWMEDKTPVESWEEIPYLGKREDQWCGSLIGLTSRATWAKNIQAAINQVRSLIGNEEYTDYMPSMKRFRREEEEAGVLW

SMILES: CC(Oc1ccc(Br)cc1)c1nc2c3ccccc3nc(S)n2n1 (stereo not given)
- AC50 [1]: 7.23 µM (active)
- IC50 [2]: 3.74 µM (active)

SMILES: Cc1ccc(S(=O)(=O)c2nnn3c2nc(N2CCCCC2)c2ccccc23)cc1
- IC50 [3]: 10 µM (active)
- IC50 [4]: 2.96 µM (active)
- EC50 [5]: 1.14 µM (active)
- EC50 [6]: > 60 µM (inconclusive)
- EC50 [7]: > 53 µM (inactive)

SMILES: COc1ccc(C(C(=O)NC2CCCC2)N(C(=O)c2ccoc2C)c2cc(C)cc(C)c2)cc1 (stereo not given)
- IC50 [3]: > 20 µM (inactive)
- IC50 [4]: 5.69 µM (active)
- EC50 [7]: > 53 µM (inactive)

SMILES: CCOC(=O)c1cnc2c(C)cc(C)cc2c1NCCCN1CCOCC1
- AC50 [8]: 11.4 µM (active)
- AC50 [9]: 5.48 µM (active)

SMILES: COc1ccc(N2CCN(C(=O)CSc3nnc(CNc4ccccc4)o3)CC2)cc1
- AC50 [10]: 44.3 µM (active)

SMILES: CCOc1ccc(/C=C2\SC(=S)N(NS(=O)(=O)c3ccc(C)cc3)C2=O)cc1OC
- IC50 [3]: > 20 µM (inactive)
- IC50 [4]: 6.18 µM (active)
- IC50 [11]: 58.3 µM (active)
- IC50 [12]: 34.2 µM (active)
- EC50 [7]: > 53 µM (inactive)

SMILES: O=C(C1CCC(CNS(=O)(=O)c2cccc3nsnc23)CC1)N1CC=C(c2ccccc2)CC1 (stereo not given)
- IC50 [2]: 3.8 µM (active)

SMILES: Cc1ccccc1NC(=O)Cc1nc(COC(=O)c2cc([N+](=O)[O-])ccc2NCCO)cs1
- IC50 [3]: 13.8 µM (active)
- IC50 [4]: 23.2 µM (active)
- EC50 [7]: > 53 µM (inactive)

SMILES: CN(C)CCNC(=O)c1cccc(-c2cnc3c(NC=O)cc(-c4ccc(F)cc4)cn23)c1
- AC50 [8]: 3.96 µM (active)
- AC50 [9]: 17.7 µM (active)

SMILES: Cc1nn(C)cc1NC(=O)C[C@@H]1CC[C@@H]2[C@@H](COc3ccc(NC(=O)Nc4cccc(Cl)c4)cc3C(=O)N2C)O1
- AC50 [10]: 22.8 µM (active)
